Patent US5849782A, “Methods of inhibiting neurodegenerative diseases” (The General Hospital Corporation, priority 1996, dated 1998)

How the values were obtained:
Male Swiss-Webster mice [1] = experiment: 3-nitrotyrosine to tyrosine ratio in mouse striatum after MPTP; type: in vivo; conditions: MPTP 20 mg/kg x4
Method: (§1) Dopamine, 3,4-dihydroxyphenlyacetic acid (DOPAC), homovanillic acid (HVA), p-tyrosine, and 3-nitrotyrosine were quantified by HPLC with 16-electrode electrochemical detection (Beal et al. (1990) supra) and are expressed as ng/mg protein (mean±SEM) (FIG. 1). 3-Nitrotyrosine data are expressed as ratios of 3-nitrotyrosine to p-tyrosine to normalize for differing brain concentrations of tyrosine. The statistical significance of differences was determined via one-way ANOVA followed by Fisher PLSD post hoc test to compare group means. All animal use procedures were in strict accordance with the NIH Guide for the Care and Use of Laboratory Animals and were approved by the local Animal Care Committee.
Role of Peroxynitrite in MPTP. To determine whether peroxynitrite plays a role in MPTP neurotoxicity, we therefore measured the ratio of 3-nitrotyrosine to tyrosine in mouse striatum following administration of MPTP.

Male Swiss-Webster mice [2] = experiment: MPTP-induced neurotoxicity in mice: striatal dopamine, DOPAC, HVA; type: in vivo, mouse; conditions: at 1 week
Method: Methods. Male Swiss-Webster mice (30-35 g:Taconic Farms, Germantown, N.Y., U.S.A.) were treated with either normal saline or MPTP hydrochloride (Research Biochemicals, Natick, Mass., U.S.A.). MPTP was administered in 0.1 ml of water at a dose of 10 mg/kg i.p. at 2-h intervals for six doses or 20 mg/kg i.p. at 2-h intervals for four doses. 7-NI (Cookson Chemical Ltd., Southhampton, U.K.) was dissolved in peanut oil (Sigma, St. Louis, Mo., U.S.A.) at a concentration of 5 mg/ml. Mice received doses of 25 or 50 mg/kg per subcutaneous injection. MPTP-treated animals were treated with peanut oil or 7-NI 12 h before the first, at every MPTP injection, and every 8 h for 48 h after MPTP injections. Eleven to 12 animals were used in each group. Animals were killed at 1 week. The two striata were rapidly dissected and placed in chilled 0.1M perchloric acid. Tissue was subsequently sonicated, and aliquots were taken for protein quantification using a fluorometric assay (Beal et al., 1990) J. Neurochem. 55:1327-1339).
as §1

Male Sprague-Dawley rats = experiment: Spontaneous striatal electrophysiological activity; conditions: MK-801 4 mg/kg after 7-NI; urethane anesthetized rats
Method: Electrophysiology. Four male Sprague-Dawley rats weighing 300 to 400 g were used for electrophysiological studies. Animals were anesthetized with urethane 1.5 g/kg i.p. and placed in a stereotaxic apparatus with their body temperatures maintained at 37° C. by a feedback heating pad. A 0.5×0.5 cm craniotomy was made and recording electrodes were placed in the anterior striatum using stereotaxic coordinates and aural monitoring. Following electrode placement the craniotomy was covered with 4% agar in saline and 30 min were allowed for stabilization before recordings were made. The spontaneous activity of multiple units were recorded extracellularly in the striatum, 3-4 mm anterior to the bregma and 3-4 mm lateral to the midline at a depth of 2.5-4.0 mm using commercially available tungsten microelectrodes (4 M.OMEGA. at 1 kHz, F. Haer, Inc.). […] Data acquisition and analysis of mean firing rate was performed using Discovery.COPYRGT., Experimenters WorkBench.COPYRGT. and Personal Scientific Workstation.COPYRGT. software (DataWave Technologies, Longmont, Colo.). We investigated the electrophysiological effects of the NMDA antagonist MK-801 and the NOS inhibitor 7-NI. […] Finally, spontaneous activity was recorded after the NMDA channel mediated activity was blocked by injection of MK-801 (4 mg/kg).

[3] = 3-NP-induced neurotoxicity in vitro; Riepe et al. 1994; cited from earlier work
dopamine transporter = dopamine transporter (Mus musculus, UniProt Q61327); conditions: read-out: concentration giving complete inhibition of [3H]dopamine uptake
[4] = MPTP 10 mg/kg x6 at 2-h intervals

Sequence of dopamine transporter (Q61327 whole entry): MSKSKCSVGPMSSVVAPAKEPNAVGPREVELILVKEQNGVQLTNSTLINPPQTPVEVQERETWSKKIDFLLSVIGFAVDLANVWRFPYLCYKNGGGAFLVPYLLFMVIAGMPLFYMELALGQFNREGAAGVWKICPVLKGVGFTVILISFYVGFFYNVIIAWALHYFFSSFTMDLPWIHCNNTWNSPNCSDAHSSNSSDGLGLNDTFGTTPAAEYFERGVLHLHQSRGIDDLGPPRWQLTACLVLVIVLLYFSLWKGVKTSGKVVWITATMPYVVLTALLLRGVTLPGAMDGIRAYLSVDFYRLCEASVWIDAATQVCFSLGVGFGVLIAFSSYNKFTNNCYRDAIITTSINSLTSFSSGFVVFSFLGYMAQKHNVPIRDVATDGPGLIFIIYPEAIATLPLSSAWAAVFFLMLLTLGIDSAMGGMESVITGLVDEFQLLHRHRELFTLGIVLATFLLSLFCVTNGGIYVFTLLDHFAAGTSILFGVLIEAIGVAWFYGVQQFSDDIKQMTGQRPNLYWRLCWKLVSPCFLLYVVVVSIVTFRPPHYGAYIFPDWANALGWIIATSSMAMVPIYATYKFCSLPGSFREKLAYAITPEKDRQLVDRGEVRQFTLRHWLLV

CN1CC=C(c2ccccc2)CC1 [MPTP, 1-methyl-4-phenyl1,2,3,6-tetrahydropyridine]
increase of 3-nitrotyrosine to tyrosine ratio (Male Swiss-Webster mice [1]): 31% | depletion in striatal DOPAC levels (Male Swiss-Webster mice [2]; [4]): 27% | depletion in striatal HVA levels (Male Swiss-Webster mice [2]; [4]): 35% | depletion in striatal dopamine levels (Male Swiss-Webster mice [2]; [4]): 38% | depletion in striatal dopamine levels (Male Swiss-Webster mice [2]; MPTP 20 mg/kg x4): 64%

C[C@]12N[C@H](Cc3ccccc31)c1ccccc12 [MK-801, reference compound]
decrease in mean firing rate in striatum (Male Sprague-Dawley rats): rapid and profound | effect on ATP depletions [3]: had no effect

OC1(c2ccc(Cl)cc2)c2ccccc2C2=NCCN21 (centres unmarked) [mazindol, reference compound]
IC100 (dopamine transporter): 1 µM
